Results published in EP0603240B1, “SAFENING HERBICIDAL PYRAZOLYLSULFONYLUREAS” (priority 1991, dated 1993).

Experiments:
Type in all cases: in vivo
corn [1] = assay: Example 10, Procedure II: Herbicide No. 1 + propachlor (No. 5) with antidotes
Description: (§1) Containers were filled and compacted with a fumigated silt loam top soil to a depth of about 1.3 cm from the top of the container. A first container was designated as an untreated control, a second container was designated as a herbicide control, and a third container was designated as a herbicide + antidote test container. Each of the containers was seeded with a crop species. A measured amount of herbicide dispersed or dissolved in acetone was applied to a measured quantity of soil. To this same quantity of soil treated with herbicide, there was added a measured amount of antidote dispersed or dissolved in acetone. The quantity of soil treated with the herbicide and antidote was thoroughly mixed to incorporate the herbicide and antidote in the soil uniformly. The seed bed in the third container of soil was covered with the soil treated with the herbicide and antidote and the container was leveled. For each test series, the seed beds of the first and second containers were likewise covered by soil layers. the cover layer of the first container was not treated with herbicide or antidote.
(§2) The containers were then placed on a bench in a greenhouse and sub-irrigated as required for the duration of the test. […] Plant response is measured in terms of percent injury. Antidote efficacy is indicated as the difference in plant injury by the herbicide(s) without the antidote and with the antidote.
(§3) This procedure is the same as Procedure I, but modified in the manner that after incorporation of the chemicals (herbicide and antidote) the containers with the covered seedbed were treated with an initial overhead irrigation equivalent to 0.6 cm rainfall, then subsequently sub-irrigated as required on greenhouse benches.
In this test, the safening effect of various antidotes on the herbicidal combination of Herbicide No. 1 and another α-chloroacetanilide co-herbicide, propachlor, (Herbicide No. 5) was investigated. Propachlor is the active ingredient in the commercial herbicide RAMROD®. Procedure II was also used in this test as in the preceding example.

corn [2] = assay: Example 3, Procedure I: antidotes against Herbicide No. 1; settings: for % Injury Corn: no antidote
Description: as §1, §2
This example details the results of tests with Antidote Nos. 12, 15 and 16 to safen Herbicide No. 1 over application rates ranging from 4.48 kg/ha down to 0.56 kg/ha, in corn in the presence of barnyardgrass. Procedure I described above was used in these tests.

corn [3] = assay: Example 13, Procedure II: Herbicide No. 1 + acetochlor (No. 6) with dichloroacetamide antidotes
Description: as §1, §2, §3
In this example a plurality of dichloroacetamide antidotes were tested for their safening efficacy against a herbicidal composition comprising Herbicide No. 1 and a co-herbicide, acetochlor (Herbicide No. 6) in corn in the presence of velvetleaf. The procedure used in this example was Procedure II above.

corn [4] = assay: Example 5, Procedure I: Herbicide No. 1 + alachlor (No. 7) with Antidote Nos. 15 and 16; settings: for % Injury Corn: no antidote
Description: as §1, §2
(§4) This example describes tests with Antidote Nos. 15 and 16 to safen Herbicide No. 1 according to Procedure I using corn and the weeds barnyardgrass and velvetleaf as the test plants.
In the tests described in this example, the same procedure described in Example 4 was performed simultaneously therewith and under the same conditions, except that a co-herbicide, alachlor, was included in the same composition with Herbicide No. 1 and Antidote Nos. 15 and 16. Alachlor (Herbicide No. 7 herein) is the active ingredient in the commercial product LASSO® herbicide.

[5] = test system: barnyardgrass (Echinochloa crusgalli); assay: Example 4, Procedure I: Antidote Nos. 15 and 16 against Herbicide No. 1; settings: no antidote, average of two replicates
Description: as §1, §2
(§5) In the series of greenhouse tests described below, for routine screening purposes the herbicide/antidote compositions were tested in crop/weed combinations involving corn as the crop and either or both of the weeds barnyardgrass (Echinochloa crusgalli), a monocotyledonous weed, and velvetleaf (Abutilon theophrasti), a dicotyledonous weed. In the tables below, these weeds are indicated by the symbols "BYG" and "VL", respectively.
as §4

[6] = test system: velvetleaf (Abutilon theophrasti); assay: as above; settings: no antidote, average of two replicates
Description: as §1, §2, §5, §4

corn [7] = assay: Example 12, Procedure II: Herbicide No. 1 + acetochlor (No. 6) with thirteen antidotes
How it was run: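 Herbicide and antidote in acetone were mixed into silt loam used to cover the corn seed bed, alongside untreated and herbicide-only controls. After incorporation, an overhead irrigation equal to 0.6 cm rainfall was given, then sub-irrigation in a greenhouse. Injury was scored as percent; safening is the injury difference without versus with antidote.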

corn [8] = assay: Example 15, Procedure II: Herbicide No. 1 + butylate (No. 10) with antidotes
Description: as §1, §2, §3
This example describes experiments designed to investigate the antidotal efficacy of a plurality of antidotes against the herbicidal action of a combination of Herbicide No. 1 and butylate in corn and the prevalent weeds barnyardgrass and velvetleaf. The antidotes used in these experiments were Nos. 1-10, 12, 13 and 15.
The test procedure used in these experiments was that of Procedure II described above. The antidotes were applied to a soil cover layer by pipet after spraying the herbicides onto the soil, followed by incorporation and overhead irrigation.

[9] = test system: barnyardgrass (Echinochloa crusgalli); assay: Example 9, Procedure II: Herbicide No. 1 + pretilachlor (No. 13) with antidotes
Description: as §1, §2, §3, §5
(§6) In this example the safening effect on a composition comprising Herbicide No. 1 and another leading rice herbicide, i.e., Herbicide No. 13, was investigated using the same antidotes and test procedure described in the preceding example. Herbicide No. 13 is pretilachlor, active ingredient used in the commercial rice herbicides RIFIT®, SOFIT® and SOFIT® SUPER.

[10] = test system: velvetleaf (Abutilon theophrasti); assay: as above
Description: as §1, §2, §3, §5, §6

[11] = Herbicide No.1 0.14 kg/ha alone, no antidote
[12] = Herbicide No.1 0.56 kg/ha alone, no antidote
[13] = Herbicide No.1 0.14 kg/ha + Herbicide No.5 4.48 kg/ha, antidote rate 2.24 kg/ha
[14] = Herbicide No.1 0.14 kg/ha + Herbicide No.5 4.48 kg/ha, antidote rate 8.96 kg/ha
[15] = Herbicide No.1 0.56 kg/ha + Herbicide No.5 4.48 kg/ha, antidote rate 2.24 kg/ha
[16] = Herbicide No.1 0.56 kg/ha + Herbicide No.5 4.48 kg/ha, antidote rate 8.96 kg/ha
[17] = Herbicide No.1 0.14 kg/ha + Herbicide No.6 2.24 kg/ha, antidote rate 2.24 kg/ha
[18] = Herbicide No.1 0.14 kg/ha + Herbicide No.6 2.24 kg/ha, antidote rate 8.96 kg/ha
[19] = Herbicide No.1 0.56 kg/ha + Herbicide No.6 2.24 kg/ha, antidote rate 2.24 kg/ha
[20] = Herbicide No.1 0.56 kg/ha + Herbicide No.6 2.24 kg/ha, antidote rate 8.96 kg/ha
[21] = Herbicide No.1 0.14 kg/ha + Herbicide No.13 2.24 kg/ha, antidote rate 2.24 kg/ha
[22] = Herbicide No.1 0.14 kg/ha + Herbicide No.13 2.24 kg/ha, antidote rate 8.96 kg/ha
[23] = Herbicide No.1 0.56 kg/ha + Herbicide No.13 2.24 kg/ha, antidote rate 2.24 kg/ha
[24] = Herbicide No.1 0.56 kg/ha + Herbicide No.13 2.24 kg/ha, antidote rate 8.96 kg/ha
[25] = Herbicide No.1 0.56 kg/ha + Herbicide No.10 6.72 kg/ha, antidote rate 2.24 kg/ha
[26] = Herbicide No.1 0.56 kg/ha + Herbicide No.10 6.72 kg/ha, antidote rate 8.96 kg/ha
[27] = Herbicide No.1 1.12 kg/ha + Herbicide No.10 6.72 kg/ha, antidote rate 2.24 kg/ha
[28] = Herbicide No.1 1.12 kg/ha + Herbicide No.10 6.72 kg/ha, antidote rate 8.96 kg/ha

CC1(C)OC(c2ccco2)CN1C(=O)C(Cl)Cl (stereo not drawn) [Antidote No. 15, Oxazolidine, 3-(dichloroacetyl)-5-(2-furanyl)-2,2-dimethyl]
safening of corn, assessment in words (corn [1]; Herbicide Nos. 1 and 5, Table 10): best safening effect
safening of corn, assessment in words (corn [2]; Herbicide No. 1, Table 3): excellent protection for corn
safening of corn, assessment in words (corn [3]; Herbicide Nos. 1 and 6, Table 13): most active overall
safening of corn, assessment in words (corn [4]; Herbicide Nos. 1 and 7, Table 5): substantial safening of corn

COC(=O)c1c(Cl)nn(C)c1S(=O)(=O)NC(=O)Nc1nc(OC)cc(OC)n1 [Herbicide No. 1]
% Injury BYG ([5]; Herb. No. 1 4.48 kg/ha): 80%
% Injury BYG ([5]; Herb. No. 1 6.72 kg/ha): 90%
% Injury VL ([6]; Herb. No. 1 4.48 kg/ha): 90%
% Injury VL ([6]; Herb. No. 1 6.72 kg/ha): 90%
% Injury Corn (corn [1]; [11]): 20%
% Injury Corn (corn [1]; [12]): 30%
combined corn injury (corn [7]; Herbicide No. 1 0.56 kg/ha + Herbicide No. 6 2.24 kg/ha, without an antidote): 45%
injury to corn (corn [7]; Herbicide No. 1 0.56 kg/ha, without an antidote): 20%
% Injury Corn (corn [7]; [11]): 15%
% Injury Corn (corn [7]; [12]): 20%
% Injury Corn (corn [2]; Herb. No. 1 0.56 kg/ha): 7%
% Injury Corn (corn [2]; Herb. No. 1 1.12 kg/ha): 13%
% Injury Corn (corn [2]; Herb. No. 1 2.24 kg/ha): 38%
% Injury Corn (corn [2]; Herb. No. 1 4.48 kg/ha): 60%
% Injury Corn (corn [8]; [12]): 20%
% Injury Corn (corn [8]; Herbicide No.1 1.12 kg/ha alone, no antidote): 20%
% Injury Corn (corn [3]; [11]): 10%
% Injury Corn (corn [3]; [12]): 55%
% Injury Corn (corn [3]; Herbicide No.1 2.24 kg/ha alone, no antidote): 80%
% Injury Corn (corn [4]; Herbicide No.1 4.48 + No.7 0.56 kg/ha): 95%
% Injury Corn (corn [4]; Herbicide No.1 4.48 + No.7 2.24 kg/ha): 95%
% Injury Corn (corn [4]; Herbicide No.1 6.72 + No.7 0.56 kg/ha): 93%
% Injury Corn (corn [4]; Herbicide No.1 6.72 + No.7 (alachlor) 2.24 kg/ha): 95%

C=CCN(CC=C)C(=O)C(Cl)Cl [compound 1]
% Injury Corn (corn [1]; [13]): 10%
% Injury Corn (corn [1]; [14]): 0%
% Injury Corn (corn [1]; [15]): 15%
% Injury Corn (corn [1]; [16]): 0%
% Injury Corn (corn [7]; [17]): 10%
% Injury Corn (corn [7]; [18]): 10%
% Injury Corn (corn [7]; [19]): 15%
% Injury Corn (corn [7]; [20]): 15%
% Injury BYG [9, 21]: 100%
% Injury BYG [9, 22]: 100%
% Injury BYG [9, 23]: 100%
% Injury BYG [9, 24]: 100%
% Injury VL [10, 21]: 75%
% Injury VL [10, 22]: 75%
% Injury VL [10, 23]: 85%
% Injury VL [10, 24]: 85%
% Injury Corn (corn [8]; [25]): 15%
% Injury Corn (corn [8]; [26]): 10%
% Injury Corn (corn [8]; [27]): 20%
% Injury Corn (corn [8]; [28]): 30%
% Injury Corn (corn [3]; Herbicide No.1 0.56 kg/ha + Herbicide No.6 4.48 kg/ha, antidote rate 0.56 kg/ha): 5%
% Injury Corn (corn [3]; Herbicide No.1 0.56 kg/ha + Herbicide No.6 4.48 kg/ha, antidote rate 2.24 kg/ha): 10%
% Injury Corn (corn [3]; Herbicide No.6 4.48 kg/ha, no Herbicide No.1, antidote rate 0.56 kg/ha): 20%
% Injury Corn (corn [3]; Herbicide No.6 4.48 kg/ha, no Herbicide No.1, antidote rate 2.24 kg/ha): 10%

O=C1OC(=O)c2cccc3cccc1c23 [compound 2]
% Injury BYG [9, 21]: 100%
% Injury BYG [9, 22]: 100%
% Injury BYG [9, 23]: 100%
% Injury BYG [9, 24]: 100%
% Injury VL [10, 21]: 80%
% Injury VL [10, 22]: 75%
% Injury VL [10, 23]: 85%
% Injury VL [10, 24]: 80%

O=C(C(Cl)Cl)N1CCOC12CCCCC2 [compound 7]
% Injury BYG [9, 21]: 100%
% Injury BYG [9, 22]: 100%
% Injury BYG [9, 23]: 100%
% Injury BYG [9, 24]: 100%
% Injury VL [10, 21]: 80%
% Injury VL [10, 22]: 75%
% Injury VL [10, 23]: 85%
% Injury VL [10, 24]: 85%

CC1(C(Cl)Cl)OCCO1 [compound 13]
% Injury Corn (corn [1]; [13]): 0%
% Injury Corn (corn [1]; [14]): 15%
% Injury Corn (corn [1]; [15]): 45%
% Injury Corn (corn [1]; [16]): 10%
% Injury Corn (corn [7]; [17]): 10%
% Injury Corn (corn [7]; [18]): 30%
% Injury Corn (corn [7]; [19]): 35%
% Injury Corn (corn [7]; [20]): 40%
% Injury BYG [9, 21]: 100%
% Injury BYG [9, 22]: 100%
% Injury BYG [9, 23]: 100%
% Injury BYG [9, 24]: 100%
% Injury VL [10, 21]: 70%
% Injury VL [10, 22]: 75%
% Injury VL [10, 23]: 90%
% Injury VL [10, 24]: 90%
% Injury Corn (corn [8]; [25]): 10%
% Injury Corn (corn [8]; [26]): 15%
% Injury Corn (corn [8]; [27]): 20%
% Injury Corn (corn [8]; [28]): 0%
